Measurements as given in ChEMBL document CHEMBL5465560, “Selectivity Literature for EUbOPEN Chemogenomic Library” (2024).

Experiments:
[1] = target: Vascular endothelial growth factor receptor 2 (Homo sapiens, UniProt P35968); test: Selectivity interaction (KinomeScan (DiscoverX)) EUB0000229b KDR; conditions: at 10 µM
[2] = target: T1, Cyclin-G-associated kinase (Homo sapiens) (UniProt O14976); test: Selectivity interaction (DSF assay) EUB0000229b GAK
T1 sequence (whole entry): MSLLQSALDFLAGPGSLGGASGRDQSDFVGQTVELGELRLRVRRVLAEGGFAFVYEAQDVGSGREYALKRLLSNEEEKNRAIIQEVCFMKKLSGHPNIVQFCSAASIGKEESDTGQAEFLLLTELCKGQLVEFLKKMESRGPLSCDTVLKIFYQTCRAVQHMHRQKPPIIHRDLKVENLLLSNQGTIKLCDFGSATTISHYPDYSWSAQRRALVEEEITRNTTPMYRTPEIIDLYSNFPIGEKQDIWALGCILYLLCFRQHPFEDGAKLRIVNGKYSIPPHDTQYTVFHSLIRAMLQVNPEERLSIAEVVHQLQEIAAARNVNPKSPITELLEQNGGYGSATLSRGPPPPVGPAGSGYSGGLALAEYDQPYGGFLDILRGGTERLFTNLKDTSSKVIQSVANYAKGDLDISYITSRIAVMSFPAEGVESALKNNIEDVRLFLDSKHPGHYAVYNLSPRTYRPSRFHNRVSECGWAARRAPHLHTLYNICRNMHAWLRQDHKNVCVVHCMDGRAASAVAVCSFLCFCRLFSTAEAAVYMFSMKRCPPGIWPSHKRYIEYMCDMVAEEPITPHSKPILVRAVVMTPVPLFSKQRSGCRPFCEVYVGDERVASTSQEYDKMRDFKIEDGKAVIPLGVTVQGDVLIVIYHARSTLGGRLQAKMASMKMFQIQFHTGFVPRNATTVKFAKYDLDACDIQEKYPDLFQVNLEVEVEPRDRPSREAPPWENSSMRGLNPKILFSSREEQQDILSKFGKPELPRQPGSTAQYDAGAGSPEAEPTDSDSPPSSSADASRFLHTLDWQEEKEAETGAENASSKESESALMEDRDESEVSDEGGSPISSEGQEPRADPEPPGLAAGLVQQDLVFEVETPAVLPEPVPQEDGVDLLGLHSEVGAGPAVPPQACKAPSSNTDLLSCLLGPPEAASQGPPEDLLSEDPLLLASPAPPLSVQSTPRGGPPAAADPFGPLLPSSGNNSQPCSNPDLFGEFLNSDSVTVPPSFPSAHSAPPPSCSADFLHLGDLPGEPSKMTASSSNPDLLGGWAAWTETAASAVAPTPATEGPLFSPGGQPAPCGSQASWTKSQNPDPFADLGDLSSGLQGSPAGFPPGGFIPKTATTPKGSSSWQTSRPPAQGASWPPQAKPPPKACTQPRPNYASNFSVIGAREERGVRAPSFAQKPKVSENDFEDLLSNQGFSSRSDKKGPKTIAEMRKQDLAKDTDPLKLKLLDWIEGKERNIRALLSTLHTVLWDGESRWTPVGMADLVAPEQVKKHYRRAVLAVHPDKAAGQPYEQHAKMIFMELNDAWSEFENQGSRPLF

[3] = target: Muscarinic acetylcholine receptor M5 (Homo sapiens) (UniProt P08912); test: Selectivity interaction (GPCR panel (PDSP screen)) EUB0001079a CHRM5; conditions: at 10 µM
[4] = target: Dual specificity mitogen-activated protein kinase kinase 1 (Homo sapiens, UniProt Q02750); test: Selectivity interaction (Kinase panel (KiNativ target engagement assay in Jurkat cells)) EUB0001635a MAP2K1; type: cell-based; conditions: Selectivity number of off-targets 0.0, Selectivity number of targets 233.0, Source Knowledge https://www.sciencedirect.com/science/article/pii/S2451945619300674?via%3Dihub, at 1 µM
[5] = target: Transcription initiation factor TFIID subunit 1 (Homo sapiens) (UniProt P21675); test: Selectivity interaction (Human bromodomain panel (DSF assay)) EUB0000233b TAF1
[6] = target: T2, RNA 5'-monophosphate methyltransferase (Homo sapiens) (UniProt Q7Z5W3); test: Selectivity interaction (Transferase panel (protein, RNA, and DNA methyltransferases. and EP300 (acetyltransferase))) EUB0000270b BCDIN3D
T2 sequence (whole entry): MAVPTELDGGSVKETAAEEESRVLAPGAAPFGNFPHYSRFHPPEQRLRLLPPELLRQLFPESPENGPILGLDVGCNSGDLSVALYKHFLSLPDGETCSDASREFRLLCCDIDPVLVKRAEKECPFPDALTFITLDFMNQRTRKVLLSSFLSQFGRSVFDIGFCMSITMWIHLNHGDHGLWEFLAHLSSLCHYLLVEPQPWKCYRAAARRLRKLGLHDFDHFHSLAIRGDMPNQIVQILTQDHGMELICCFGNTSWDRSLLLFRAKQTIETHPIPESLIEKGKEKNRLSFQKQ

[7] = target: Dual specificity protein kinase CLK2 (Homo sapiens, UniProt P49760); test: Selectivity interaction (Kinase panel (Invitrogen)) EUB0000639a CLK2; conditions: at 200 nM
[8] = target: Serine/threonine-protein kinase MRCK beta (Homo sapiens) (UniProt Q9Y5S2); test: Selectivity interaction (KinomeScan (DiscoverX)) EUB0000045b CDC42BPB
Chain of Serine/threonine-protein kinase MRCK beta (Homo sapiens) (Q9Y5S2 whole entry): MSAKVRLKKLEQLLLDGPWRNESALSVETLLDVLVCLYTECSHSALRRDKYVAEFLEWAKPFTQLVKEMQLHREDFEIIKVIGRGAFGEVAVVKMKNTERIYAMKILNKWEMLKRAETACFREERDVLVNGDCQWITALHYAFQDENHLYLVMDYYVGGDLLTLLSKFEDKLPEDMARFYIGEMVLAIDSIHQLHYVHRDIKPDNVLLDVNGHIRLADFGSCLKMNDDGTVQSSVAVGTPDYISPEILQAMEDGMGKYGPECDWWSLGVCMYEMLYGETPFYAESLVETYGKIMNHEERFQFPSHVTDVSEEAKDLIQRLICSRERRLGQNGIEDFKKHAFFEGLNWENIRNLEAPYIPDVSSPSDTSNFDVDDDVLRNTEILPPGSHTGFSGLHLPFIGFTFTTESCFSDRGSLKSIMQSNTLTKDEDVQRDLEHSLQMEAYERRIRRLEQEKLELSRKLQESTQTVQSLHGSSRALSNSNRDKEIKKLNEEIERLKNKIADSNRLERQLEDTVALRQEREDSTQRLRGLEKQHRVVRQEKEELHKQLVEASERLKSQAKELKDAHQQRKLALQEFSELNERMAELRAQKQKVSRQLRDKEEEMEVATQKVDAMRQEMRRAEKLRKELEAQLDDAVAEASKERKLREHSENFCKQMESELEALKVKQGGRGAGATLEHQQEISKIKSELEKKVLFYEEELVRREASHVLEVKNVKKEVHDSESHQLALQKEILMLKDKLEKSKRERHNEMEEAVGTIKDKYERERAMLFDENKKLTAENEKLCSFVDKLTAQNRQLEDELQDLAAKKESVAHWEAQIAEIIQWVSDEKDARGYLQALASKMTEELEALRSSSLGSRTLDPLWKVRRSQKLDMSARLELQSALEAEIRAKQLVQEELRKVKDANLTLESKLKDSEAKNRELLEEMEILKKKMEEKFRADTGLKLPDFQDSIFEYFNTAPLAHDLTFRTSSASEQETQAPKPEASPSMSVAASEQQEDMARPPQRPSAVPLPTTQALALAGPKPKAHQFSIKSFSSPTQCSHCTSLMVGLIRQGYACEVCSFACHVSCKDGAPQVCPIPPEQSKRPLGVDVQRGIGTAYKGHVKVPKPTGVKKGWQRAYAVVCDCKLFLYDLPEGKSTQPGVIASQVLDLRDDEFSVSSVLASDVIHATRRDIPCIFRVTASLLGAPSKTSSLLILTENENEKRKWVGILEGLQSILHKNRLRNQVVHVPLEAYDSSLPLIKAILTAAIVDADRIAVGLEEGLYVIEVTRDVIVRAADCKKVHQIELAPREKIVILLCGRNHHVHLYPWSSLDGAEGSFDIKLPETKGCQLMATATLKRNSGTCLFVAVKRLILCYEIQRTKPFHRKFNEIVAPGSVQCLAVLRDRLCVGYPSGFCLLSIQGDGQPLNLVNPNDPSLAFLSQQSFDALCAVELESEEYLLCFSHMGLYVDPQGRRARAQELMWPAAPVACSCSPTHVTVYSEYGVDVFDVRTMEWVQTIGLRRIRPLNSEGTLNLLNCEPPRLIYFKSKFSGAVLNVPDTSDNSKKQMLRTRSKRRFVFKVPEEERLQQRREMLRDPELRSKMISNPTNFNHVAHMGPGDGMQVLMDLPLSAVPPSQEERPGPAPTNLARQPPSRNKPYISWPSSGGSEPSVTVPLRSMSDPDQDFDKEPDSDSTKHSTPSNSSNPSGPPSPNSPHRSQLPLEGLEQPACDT

[9] = target: Serine/threonine-protein kinase SIK2 (Homo sapiens) (UniProt Q9H0K1); test: Selectivity interaction (KinomeScan (DiscoverX)) EUB0001619a SIK2; conditions: at 1 µM
Chain of Serine/threonine-protein kinase SIK2 (Homo sapiens) (Q9H0K1 whole entry, looked up): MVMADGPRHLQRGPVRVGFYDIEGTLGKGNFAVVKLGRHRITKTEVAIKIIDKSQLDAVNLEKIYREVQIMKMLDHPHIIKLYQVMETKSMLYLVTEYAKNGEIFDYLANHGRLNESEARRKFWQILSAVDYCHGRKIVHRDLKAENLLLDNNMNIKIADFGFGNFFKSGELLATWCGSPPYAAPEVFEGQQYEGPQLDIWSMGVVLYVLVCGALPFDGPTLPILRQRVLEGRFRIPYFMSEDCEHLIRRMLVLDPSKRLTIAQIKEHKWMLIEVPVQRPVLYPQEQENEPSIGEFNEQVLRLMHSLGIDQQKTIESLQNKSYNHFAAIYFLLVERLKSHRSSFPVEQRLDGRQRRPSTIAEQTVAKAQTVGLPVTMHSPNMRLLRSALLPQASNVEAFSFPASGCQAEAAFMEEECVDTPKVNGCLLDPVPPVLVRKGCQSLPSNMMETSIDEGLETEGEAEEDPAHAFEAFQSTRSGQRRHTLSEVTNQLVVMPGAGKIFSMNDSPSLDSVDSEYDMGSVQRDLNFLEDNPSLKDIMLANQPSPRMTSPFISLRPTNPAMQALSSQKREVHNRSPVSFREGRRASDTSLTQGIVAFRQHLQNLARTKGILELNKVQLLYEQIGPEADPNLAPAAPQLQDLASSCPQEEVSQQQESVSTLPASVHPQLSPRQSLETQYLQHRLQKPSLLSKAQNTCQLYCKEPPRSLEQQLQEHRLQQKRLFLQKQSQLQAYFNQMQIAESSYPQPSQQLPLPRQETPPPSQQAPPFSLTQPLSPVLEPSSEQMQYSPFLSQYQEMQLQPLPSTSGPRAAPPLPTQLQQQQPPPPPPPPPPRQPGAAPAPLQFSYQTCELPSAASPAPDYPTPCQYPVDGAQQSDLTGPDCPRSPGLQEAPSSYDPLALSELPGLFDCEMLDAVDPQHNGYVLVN

[10] = target: Glutamate receptor ionotropic, NMDA 2B (Homo sapiens) (UniProt Q13224); test: Selectivity interaction (Panel of kinases, GPCRs, ion channels and transporters (enzymatic assay)) EUB0000266bCl GRIN2B
Chain of Glutamate receptor ionotropic, NMDA 2B (Homo sapiens) (Q13224 27-1484 limits assumed): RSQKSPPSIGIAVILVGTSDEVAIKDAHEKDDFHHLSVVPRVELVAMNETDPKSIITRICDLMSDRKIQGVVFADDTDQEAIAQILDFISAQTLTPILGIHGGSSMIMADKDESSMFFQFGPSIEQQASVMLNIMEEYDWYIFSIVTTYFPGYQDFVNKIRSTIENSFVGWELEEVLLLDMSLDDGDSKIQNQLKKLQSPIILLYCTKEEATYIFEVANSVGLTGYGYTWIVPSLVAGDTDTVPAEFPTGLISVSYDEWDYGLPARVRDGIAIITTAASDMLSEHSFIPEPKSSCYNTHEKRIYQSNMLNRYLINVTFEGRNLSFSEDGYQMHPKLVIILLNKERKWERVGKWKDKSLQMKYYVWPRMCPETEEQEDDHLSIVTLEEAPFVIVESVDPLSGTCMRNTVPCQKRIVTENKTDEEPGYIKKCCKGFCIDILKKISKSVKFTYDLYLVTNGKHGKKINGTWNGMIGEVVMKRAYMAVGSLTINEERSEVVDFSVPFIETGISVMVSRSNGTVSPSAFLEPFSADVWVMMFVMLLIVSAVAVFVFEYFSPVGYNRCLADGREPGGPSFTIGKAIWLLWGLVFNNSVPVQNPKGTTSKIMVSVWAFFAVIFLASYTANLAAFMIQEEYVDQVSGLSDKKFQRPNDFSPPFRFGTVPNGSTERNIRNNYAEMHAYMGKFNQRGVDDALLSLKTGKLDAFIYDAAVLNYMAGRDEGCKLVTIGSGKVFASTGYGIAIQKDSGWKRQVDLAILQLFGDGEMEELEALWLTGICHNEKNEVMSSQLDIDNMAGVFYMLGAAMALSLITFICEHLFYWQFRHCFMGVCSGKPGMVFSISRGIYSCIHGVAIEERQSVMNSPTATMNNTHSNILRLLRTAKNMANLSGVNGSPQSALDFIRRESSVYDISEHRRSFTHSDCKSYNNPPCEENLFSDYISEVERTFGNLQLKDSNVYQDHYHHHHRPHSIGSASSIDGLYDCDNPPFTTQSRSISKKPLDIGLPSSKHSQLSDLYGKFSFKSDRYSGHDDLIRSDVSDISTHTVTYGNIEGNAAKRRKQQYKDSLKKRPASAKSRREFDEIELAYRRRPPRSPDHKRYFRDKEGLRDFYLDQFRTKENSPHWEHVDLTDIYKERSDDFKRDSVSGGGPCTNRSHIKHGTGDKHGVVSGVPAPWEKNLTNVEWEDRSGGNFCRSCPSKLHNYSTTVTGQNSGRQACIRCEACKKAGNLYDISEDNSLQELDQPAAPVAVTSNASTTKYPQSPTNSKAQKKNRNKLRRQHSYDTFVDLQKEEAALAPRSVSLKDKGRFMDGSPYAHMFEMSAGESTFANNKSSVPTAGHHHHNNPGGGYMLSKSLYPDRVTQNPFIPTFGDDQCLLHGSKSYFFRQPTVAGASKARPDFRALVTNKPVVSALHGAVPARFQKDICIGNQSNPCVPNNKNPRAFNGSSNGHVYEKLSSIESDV

D(2) dopamine receptor = D(2) dopamine receptor (Homo sapiens, UniProt P14416); test: Selectivity interaction (Panel of kinases, GPCRs, ion channels and transporters (enzymatic assay)) EUB0000223bCl DRD2
Chain of D(2) dopamine receptor (P14416 whole entry): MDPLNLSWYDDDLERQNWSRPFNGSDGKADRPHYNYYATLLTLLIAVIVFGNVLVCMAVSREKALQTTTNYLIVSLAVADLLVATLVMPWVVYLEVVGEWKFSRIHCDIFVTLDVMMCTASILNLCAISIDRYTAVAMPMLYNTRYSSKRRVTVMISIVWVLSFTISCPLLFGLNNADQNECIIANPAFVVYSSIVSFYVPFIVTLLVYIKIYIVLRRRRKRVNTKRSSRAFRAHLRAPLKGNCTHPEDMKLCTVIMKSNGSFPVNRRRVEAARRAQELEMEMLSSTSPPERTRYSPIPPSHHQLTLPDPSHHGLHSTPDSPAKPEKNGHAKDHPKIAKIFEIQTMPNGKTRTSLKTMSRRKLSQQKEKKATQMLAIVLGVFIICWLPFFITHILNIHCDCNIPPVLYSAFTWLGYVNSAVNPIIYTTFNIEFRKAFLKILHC

[11] = target: Glycogen synthase kinase-3 alpha (Homo sapiens, UniProt P49840); test: Selectivity interaction (Competition-binding assay (DiscoverX)) EUB0001632a GSK3A
Chain of Glycogen synthase kinase-3 alpha (P49840 whole entry): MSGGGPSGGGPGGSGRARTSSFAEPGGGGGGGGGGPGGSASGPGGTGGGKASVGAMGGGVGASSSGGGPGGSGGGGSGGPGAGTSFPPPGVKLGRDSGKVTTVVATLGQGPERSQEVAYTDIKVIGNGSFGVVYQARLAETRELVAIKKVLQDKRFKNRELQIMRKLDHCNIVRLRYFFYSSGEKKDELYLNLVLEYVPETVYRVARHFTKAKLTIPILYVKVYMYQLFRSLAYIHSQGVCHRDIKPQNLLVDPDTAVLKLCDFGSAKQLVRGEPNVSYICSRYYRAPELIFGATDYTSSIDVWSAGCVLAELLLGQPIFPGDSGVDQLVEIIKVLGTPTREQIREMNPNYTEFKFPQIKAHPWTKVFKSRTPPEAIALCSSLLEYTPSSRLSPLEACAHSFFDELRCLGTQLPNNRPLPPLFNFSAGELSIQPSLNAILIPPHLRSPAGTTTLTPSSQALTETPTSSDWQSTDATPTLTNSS

Compound `COc1cc(N(C)c2ccnc3ccc(C(F)(F)F)cc23)cc(OC)c1OC` has a % binding [1] of 85% and a dTm [2] of -0.3 K.
`Nc1cnc(N2CCc3cc(S(=O)(=O)Nc4c(F)cc(Cl)cc4F)cc(N4CCCC4=O)c32)nc1` [TP-020n] was tested, and the % of inhibition [3] was 1.45%.
Compound `C=CC(=O)Nc1ccc(C(=O)Nc2[nH]nc3c2CN(C(=O)N[C@H](CN(C)C)c2ccccc2)C3(C)C)cc1` has a % of engagement [4] of -2.4%.
For `CN(C)CCCOc1ccc(-c2cc(NCCCn3cccn3)nc(S(C)(=O)=O)n2)cc1`, the dTM [5] was < 2 K.
`Cc1cc(CN)cc(C)c1-c1ncn(C)c1-c1cncn1C` was tested, and the % activity ([6]; at 1 µM) was > 90% and the % activity ([6]; at 10 µM) was > 80%.
In the case of `CC[C@@H]1[C@H](F)C(=O)N[C@@H]1COc1nccc2cc(C(N)=O)c(OC)cc12` [ZIMLOVISERTIB], the % of inhibition [7] is reported as 14.8%.
In the case of `C=CC(=O)Nc1cc(-n2c(=O)ccc3cnc4ccc(-c5ccc(NS(C)(=O)=O)cc5)cc4c32)ccc1C`, the % of control ([8]; at 1 µM) is reported as 100% and the % of control ([8]; at 10 µM) is reported as 100%.
Work on `N#Cc1cccc(-c2c[nH]c3ncnc(N4CCOCC4)c23)c1` yielded a % of control [9] of 32%.
With `CCn1c(-c2nc3cc(C(=O)N4CCCC(N)C4)ccc3n2C)cc2ccccc21` (centres undefined) the pXC50 [10] was < 4.3 M.
`COc1cc(C(=O)N2CC[C@@H](O)[C@@H](N)C2)cc2nc(-c3cc4ccccc4n3CC3CC3)n(C)c12` was tested, and the pXC50 (D(2) dopamine receptor) was < 4 M.
For `Cn1cc(-n2cnc3c(NCc4nc5cc(Cl)c(Cl)cc5[nH]4)nc(N4CCOCC4)nc32)cn1`, the Kd [11] was 1200 nM.
